In publication PMC8409151, “GT198 Is a Target of Oncology Drugs and Anticancer Herbs” (Frontiers in Oral Health, 2021):
Values joined by “and” are separate entries in the source; they are usually repeats but may differ in a detail not shown here. Identical values can stand only once. Like-named read-outs stand apart in the source and are kept apart here. *1 amine or outer side, *2 acyl side, *3 side chain or, on linkers, in order; H or OH if unused. Where a SMILES comes first, the peptide text is derived from it. Bridges are numbered along the chain shown (N, C = ends). Roman numbers before positions name the chains, in order. [ ]: non-standard residue; d: D form. Actinocin(9to1) = Cc1c2oc3c(C)ccc(C(=O)[*:1])c3nc-2c(C(=O)[*:2])c(N)c1=O; NMeV = CN[C@H](C(=O)O)C(C)C; Sar = CNCC(=O)O

What was measured:
GT198 [1] = biological target: T1, GT198 (Homo sapiens, UniProt Q9P2W1); experiment: In vitro DNA-binding assay of GT198 (biotinylated DNA, chemiluminescence); parameters: Efficacy: dose or concentration left out as unconfirmed; conditions: for Activity: NCI Approved Oncology Drug Set VII; for inhibition at 2 µM: read-out: Efficacy; for Efficacy: percent of inhibition of drugs
T1 sequence (Q9P2W1 1-180): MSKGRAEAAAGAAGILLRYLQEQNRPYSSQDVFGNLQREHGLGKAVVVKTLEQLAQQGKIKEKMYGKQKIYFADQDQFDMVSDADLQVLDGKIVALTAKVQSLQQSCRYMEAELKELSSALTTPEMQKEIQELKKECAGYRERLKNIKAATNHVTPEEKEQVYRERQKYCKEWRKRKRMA
Protocol: (§1) In order to measure GT198 activity in vitro for direct inhibition, a DNA-binding assay was developed in which recombinant GT198 proteins are coated on 96-well plates and assayed for the binding of biotin-labeled DNA in the presence of drug inhibitors. […] N-terminal His-tagged recombinant human GT198 protein without its C-terminus (aa 1–180) were expressed in E. coli BL21 (DE3) pLysS and purified through Ni-NTA-agarose (Qiagen) as previously described [33]. Proteins were eluted by 200 mM imidazole, desalted, concentrated using Amicon YM-10 spin columns, and stored at −80°C before use. Protein concentrations were determined using protein assay dye reagent concentrate solution (Bio-Rad) and 2 mg/ml bovine serum albumin (BSA) standard (Sigma).
(§2) A single-stranded 25-mer biotin-oligonucleotide (Biotin)-[sequence] was used in the assay because it is sufficient to bind one GT198 dimer. […] BSA alone was included as a control for background. No subtraction of background was needed due to very low background. Duplicated wells were used for each experimental point. Each experiment was repeated three times. The GT198-coated plates were blocked with 5% BSA in a solution containing PBS with 0.1% Triton X-100 (TPBS) for 1 h. The binding was carried out for 4 h to overnight at 4°C using 150 nM Biotin-DNA and serial diluted drugs (0.128, 0.64, 3.2, 16, 80, 400, 2,000, 10,000 nM) or herb extracts (0, 0.0384, 0.192, 0.96, 4.8, 24, 120, 600 ng/μl) in the binding buffer (20 mM TrisHCl, pH 7.5, 50 mM NaCl, 75 mM KCl, 0.5 mM MgCl2, 0.05% Triton X-100, 10% glycerol, 1 mM dithiothreitol). After binding, the plates were washed three times with TPBS solution for total 45 min. The plates were then incubated with streptavidin-conjugated HRP (Roche Molecular Biochemicals, #1089153) at 1 U/ml in TPBS for 1 h at 4°C and further washed three times with TPBS for total 30 min. […] Reading of plates was repeated three times within 45 min, and usually the second reading yielded the most consistent results. The finished plates were stained with Bio-Rad protein assay dye reagent to evaluate the bound GT198 protein on the plates.
(§3) The IC50 values were calculated through Kaleidagraph software (Synergy Software) using nonlinear regression sigmoidal dose-response curve fit. The equation for calculation is y = m1 + (m2 – m1)/[1 + (x /m3)^m4], where m1 is the minimum, m2 is the maximum, m3 is the IC50 value calculated by Kaleidagraph, and m4 is the slope at midpoint of the curve. The analysis of Vmax and Km in competitive binding assays were carried out in double-reciprocal plots, using means of four high-concentration data points, omitting points at lower concentrations with reciprocal values off-scale. […] Double-reciprocal plots reveal competitive binding as constant Vmax with increased Km in the presence of drugs or allosteric binding with reduced Vmax and constant Km in the presence of drugs.

GT198 [2] = biological target: T1, GT198; experiment: biochemical
Protocol: as §1, §2, §3

GT198 [3] = biological target: T1, GT198; parameters: this study used a C-terminal truncated version of GT198 (aa 1–180) to ensure high sensitivity of the assay; His tag (N); made in house; host or cells: E. coli BL21 (DE3) pLysS; method as in doi:10.1101/675579; conditions: separate study ref 45; cited from earlier work
[4] = biological target: T2, GT198 (Hop2), C-terminally truncated (human, UniProt Q9P2W1 1-180, del181-217); experiment: plate binding assay (immobilized protein, streptavidin-HRP chemiluminescence); EC50; no drug; 20 mM Tris-HCl pH 7.5, 50 mM NaCl, 75 mM KCl, 0.5 mM MgCl2, 0.05% Triton X-100, 10% glycerol, 1 mM DTT; 4 C, 4 h to overnight; 400 ng/well GT198 plus 5 ug BSA; conditions: protein: recombinant; tags: N-terminal His; chain copies: 2; label: biotin
T2 sequence: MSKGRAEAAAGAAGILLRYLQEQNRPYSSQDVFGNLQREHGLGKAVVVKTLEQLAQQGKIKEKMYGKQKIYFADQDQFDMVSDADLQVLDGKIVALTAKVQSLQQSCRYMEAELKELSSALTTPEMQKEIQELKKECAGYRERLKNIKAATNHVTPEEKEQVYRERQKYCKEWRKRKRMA

[5] = Table 1, drugs not measured with IC50 are shown as active or inactive
[6] = IC50, figures 2, 3, 150 nM DNA, sigmoidal curve fit, ND = not detectable

NCC(=O)CCC(=O)O [Aminolevulinic acid]
GT198 inhibition (in words) (GT198 [1]): positive inhibitors | Activity (GT198 [1]; Supplementary Table 1): + | Efficacy (active or inactive) (GT198 [1]; [5]): Active

CO[C@H]1C(=O)[C@]2(C)[C@@H](OC)C[C@H]3OC[C@@]3(OC(C)=O)[C@H]2[C@H](OC(=O)c2ccccc2)[C@]2(O)C[C@H](OC(=O)[C@H](O)[C@@H](NC(=O)OC(C)(C)C)c3ccccc3)C(C)=C1C2(C)C [Cabazitaxel]
Efficacy (active or inactive) (GT198 [1]; [5]): Inactive

CC[C@@]1(O)C(=O)OCc2c1cc1n(c2=O)Cc2cc3ccccc3nc2-1 [Camptothecin]
IC50 (GT198 [2]): 2060 nM | GT198 inhibition (in words) (GT198 [1]): very poor affinities or fail to inhibit GT198 | inhibition at 2 µM (GT198 [1]): 30%

N.N.O=C([O-])C1(C(=O)[O-])CCC1.[Pt+2] [Carboplatin]
GT198 inhibition (in words) (GT198 [1]): does not inhibit GT198 | IC50 (GT198 [1]; Supplementary Table 1): > 2000 nM | Efficacy (GT198 [1]; Supplementary Table 1): 0% | Efficacy (active or inactive) (GT198 [1]; [5]): Inactive

CC(C)C[C@H](NC(=O)[C@H](CCc1ccccc1)NC(=O)CN1CCOCC1)C(=O)N[C@@H](Cc1ccccc1)C(=O)N[C@@H](CC(C)C)C(=O)[C@@]1(C)CO1 [Carfilzomib]
GT198 inhibition (in words) (GT198 [1]): positive inhibitors | Efficacy (active or inactive) (GT198 [1]; [5]): Active

CC1=C(O)C(=O)C=C2C1=CC=C1[C@@]2(C)CC[C@@]2(C)[C@@H]3C[C@](C)(C(=O)O)CC[C@]3(C)CC[C@]12C [Celastrol]
GT198 inhibition (in words) (GT198 [1]): positive | IC50 (GT198 [1]; IC50): 350 nM | inhibition at 2 µM (GT198 [1]): 30%

N.N.[Cl][Pt][Cl] [Cisplatin]
Efficacy (active or inactive) (GT198 [1]; [5]): Inactive

Cc1c2oc3c(C)ccc(C(=O)N[C@@H]4C(=O)N[C@H](C(C)C)C(=O)N5CCC[C@H]5C(=O)N(C)CC(=O)N(C)[C@@H](C(C)C)C(=O)O[C@@H]4C)c3nc-2c(C(=O)N[C@@H]2C(=O)N[C@H](C(C)C)C(=O)N3CCC[C@H]3C(=O)N(C)CC(=O)N(C)[C@@H](C(C)C)C(=O)O[C@@H]2C)c(N)c1=O [Dactinomycin] (I: T[dV]P[Sar][NMeV] / II: T[dV]P[Sar][NMeV]; ester I:1-I:C, II:1-II:C; linker I:N-II:N via Actinocin(9to1))
Efficacy (active or inactive) (GT198 [1]): Active | GT198 inhibition (in words) (GT198 [1]): positive inhibitors

COc1cccc2c1C(=O)c1c(O)c3c(c(O)c1C2=O)C[C@@](O)(C(C)=O)C[C@@H]3O[C@H]1C[C@H](N)[C@H](O)[C@H](C)O1 [Daunorubicin]
IC50 (GT198 [2]): 149 nM | IC50 (GT198 [1]; [6]): 150 nM | inhibition at 2 µM (GT198 [1]): 48%

CC(=O)O[C@@]12CO[C@@H]1C[C@H](O)[C@@]1(C)C(=O)[C@H](O)C3=C(C)[C@@H](OC(=O)[C@H](O)[C@@H](NC(=O)OC(C)(C)C)c4ccccc4)C[C@@](O)([C@@H](OC(=O)c4ccccc4)[C@H]21)C3(C)C [Docetaxel]
GT198 inhibition (in words) (GT198 [1]): GT198 inhibitors | Efficacy (active or inactive) (GT198 [1]; [5]): Active

COc1cccc2c1C(=O)c1c(O)c3c(c(O)c1C2=O)C[C@@](O)(C(=O)CO)C[C@@H]3O[C@H]1C[C@H](N)[C@@H](O)[C@H](C)O1 [Epirubicin]
IC50 (GT198 [1]; IC50): 750 nM and 749 nM

COc1cc([C@@H]2c3cc4c(cc3[C@@H](O[C@@H]3O[C@@H]5CO[C@@H](C)O[C@H]5[C@H](O)[C@H]3O)[C@H]3COC(=O)[C@H]23)OCO4)cc(OC)c1O [Etoposide]
IC50 (GT198 [2]): 24 nM | GT198 inhibition (in words) (GT198 [1]): GT198 inhibitors | IC50 (GT198 [1]; [6]): 24.2 nM | inhibition at 2 µM (GT198 [1]): 42%

CC(=O)[C@]1(O)Cc2c(O)c3c(c(O)c2[C@@H](O[C@H]2C[C@H](N)[C@H](O)[C@H](C)O2)C1)C(=O)c1ccccc1C3=O [Idarubicin]
IC50 (GT198 [2]): 362 nM | IC50 (GT198 [1]; [6]): 362 nM | inhibition at 2 µM (GT198 [1]): 56%

CCc1c2c(nc3ccc(OC(=O)N4CCC(N5CCCCC5)CC4)cc13)-c1cc3c(c(=O)n1C2)COC(=O)[C@]3(O)CC [Irinotecan]
IC50 (GT198 [2]): > 2000 nM | GT198 inhibition (in words) (GT198 [1]): very poor affinities or fail to inhibit GT198 | inhibition at 2 µM (GT198 [1]): 10%

CN(Cc1cnc2nc(N)nc(N)c2n1)c1ccc(C(=O)N[C@@H](CCC(=O)O)C(=O)O)cc1 [Methotrexate]
GT198 inhibition (in words) (GT198 [1]): negatives

O=C1c2c(O)ccc(O)c2C(=O)c2c(NCCNCCO)ccc(NCCNCCO)c21 [Mitoxantrone]
IC50 (GT198 [2]): 187 nM | GT198 inhibition (in words) (GT198 [1]): almost complete inhibition | IC50 (GT198 [1]; [6]): 187 nM | Activity (GT198 [1]; Supplementary Table 1): + | Efficacy (GT198 [1]; Supplementary Table 1): 90% | inhibition at 2 µM (GT198 [1]): 90%

CC(=O)O[C@H]1C(=O)[C@@]2(C)[C@H]([C@H](OC(=O)c3ccccc3)[C@]3(O)C[C@H](OC(=O)[C@H](O)[C@@H](NC(=O)c4ccccc4)c4ccccc4)C(C)=C1C3(C)C)[C@]1(OC(C)=O)CO[C@@H]1C[C@@H]2O [Paclitaxel]
IC50 (GT198 [2]): 5 nM | GT198 inhibition (in words) (GT198 [1]): GT198 inhibitors | inhibition at 2 µM (GT198 [1]): 32% | Mode of inhibition (GT198 [3]): allosteric inhibitor or noncompetitive inhibitor

CO[C@H]1C[C@@H]2CC[C@@H](C)[C@@](O)(O2)C(=O)C(=O)N2CCCC[C@H]2C(=O)O[C@H]([C@H](C)C[C@@H]2CC[C@@H](O)[C@H](OC)C2)CC(=O)[C@H](C)/C=C(\C)[C@@H](O)[C@@H](OC)C(=O)[C@H](C)C[C@H](C)/C=C/C=C/C=C/1C [Sirolimus]
GT198 inhibition (in words) (GT198 [1]): positive inhibitors | Efficacy (active or inactive) (GT198 [1]; [5]): Active

CCN(CC)CCNC(=O)c1c(C)[nH]c(/C=C2\C(=O)Nc3ccc(F)cc32)c1C [Sunitinib]
GT198 inhibition (in words) (GT198 [1]): positive inhibitors | Activity (GT198 [1]; Supplementary Table 1): + | Efficacy (active or inactive) (GT198 [1]; [5]): Active

COc1cc([C@@H]2c3cc4c(cc3[C@@H](O[C@@H]3O[C@@H]5CO[C@@H](c6cccs6)O[C@H]5[C@H](O)[C@H]3O)[C@H]3COC(=O)[C@H]23)OCO4)cc(OC)c1O [Teniposide]
GT198 inhibition (in words) (GT198 [1]): GT198 inhibitors | Efficacy (active or inactive) (GT198 [1]; [5]): Active

CC[C@@]1(O)C(=O)OCc2c1cc1n(c2=O)Cc2cc3c(CN(C)C)c(O)ccc3nc2-1 [Topotecan]
IC50 (GT198 [2]): > 2000 nM | GT198 inhibition (in words) (GT198 [1]): very poor affinities or fail to inhibit GT198 | Efficacy (GT198 [1]; Supplementary Table 1): 4% | inhibition at 2 µM (GT198 [1]): 4%

O=c1[nH]c(=O)n([C@H]2C[C@H](O)[C@@H](CO)O2)cc1C(F)(F)F [Trifluridine]
GT198 inhibition (in words) (GT198 [1]): positive inhibitors | Activity (GT198 [1]; Supplementary Table 1): + | Efficacy (active or inactive) (GT198 [1]; [5]): Active

CCCCC(=O)OCC(=O)[C@]1(O)Cc2c(O)c3c(c(O)c2[C@@H](O[C@H]2C[C@H](NC(=O)C(F)(F)F)[C@H](O)[C@H](C)O2)C1)C(=O)c1c(OC)cccc1C3=O [Valrubicin]
IC50 (GT198 [2]): 973 nM | IC50 (GT198 [1]; [6]): 973 nM | inhibition at 2 µM (GT198 [1]): 26%

CC[C@]1(O)C[C@H]2CN(CCc3c([nH]c4ccccc34)[C@@](C(=O)OC)(c3cc4c(cc3OC)N(C=O)[C@H]3[C@@](O)(C(=O)OC)[C@H](OC(C)=O)[C@]5(CC)C=CCN6CC[C@]43[C@@H]65)C2)C1 [Vincristine]
GT198 inhibition (in words) (GT198 [1]): negatives | Efficacy (active or inactive) (GT198 [1]; [5]): Inactive

CCTGGGGTTGCTGAGGTCCTGGCAG (ssDNA, biotin before the first printed base (5')) [biotin 25-mer ssDNA]
apparent K (half saturation) [4]: 43 nM
